Consider 15 compounds from patent publication US9376420B2 (YUHAN CORPORATION, priority 2012, dated 2016).

This assay concerns the target T1, human LXRβ (Homo sapiens, UniProt P55055).
T1 construct: expressed in transfected cells; host or cells: HEK293 cells (ATCC CRL-1573), transient transfection with pFA-hLXRβ/GAL4 and pUAS
T1 sequence (P55055 222-460 limits assumed): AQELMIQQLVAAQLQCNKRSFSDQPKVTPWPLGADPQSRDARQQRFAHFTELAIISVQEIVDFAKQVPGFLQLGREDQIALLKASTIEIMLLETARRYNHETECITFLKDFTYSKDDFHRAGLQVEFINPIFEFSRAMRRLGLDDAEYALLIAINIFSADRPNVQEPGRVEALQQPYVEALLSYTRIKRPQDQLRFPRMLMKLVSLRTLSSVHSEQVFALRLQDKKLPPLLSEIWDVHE
The assay can be described thus: Assay for Transcriptional Activity of LXRβ (GAL4-hLXRβ LBD luciferase reporter, transient transfection). It counts as cell-based. The note with it: HEK293 cells transfected with pFA-hLXRβ/GAL4 and pUAS, 24 hours; for Emax: fold value in comparison with the control (DMSO-treated group); for EC50: increase of transcriptional activity of LXRβ, average of three independent tests. Summed up: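 HEK293 cells transiently co-transfected with GAL4-hLXRβ LBD and 5×GAL4-UAS luciferase reporter, treated 24 h at 37 °C with compounds over 9 points (0.01–50 μM, half-log). Luminescence read after lysis; EC50 from four-parameter fit, mean of three independent tests, with a known LXR agonist as positive control.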

`CS(=O)(=O)N1CC=C(c2cc(C3CC(C(F)(F)C(F)(F)F)=NN3c3ccc(F)cc3F)ccn2)CC1` (stereo not drawn) [Example 191, 1-(2,4-difluoro-phenyl)-5-[2-(1-methanesulfonyl-1,2,3,6-tetrahydropyridin-4-yl)-pyridin-4-yl]-3-pentafluoroethyl-4,5-dihydro-1H-pyrazole] yielded an Emax of 50 fold and an EC50 of 6.7 µM.
`Nc1cccc(-c2ccc(C3CC(C(O)(C(F)(F)F)C(F)(F)F)=NN3c3ccccc3Cl)cc2)c1` (stereo not drawn) [Example 253, 5-(3′-amino-biphenyl-4-yl)-1-(2-chloro-phenyl)-3-[di-(trifluoromethyl)-hydroxy-methyl]-4,5-dihydro-1H-pyrazole] showed an Emax of 55 fold and an EC50 of 1.07 µM.
The like results for `OC(C1=NN(c2ccccc2Cl)C(c2ccc(-c3cccc(OC(F)(F)F)c3)cc2)C1)(C(F)(F)F)C(F)(F)F` (stereo not drawn) [Example 248, 1-(2-chloro-phenyl)-5-[3′-(trifluoromethoxy)-biphenyl-4-yl]-3-[di-(trifluoromethyl)-hydroxy-methyl]-4,5-dihydro-1H-pyrazole] were, in that order, 43 fold and 2.48 µM.
`CS(=O)(=O)c1cccc(-c2cccc(N3N=C(C(O)(C(F)(F)F)C(F)(F)F)CC3c3ccccc3Cl)c2)c1` (stereo not drawn) [Example 434, 5-(2-chloro-phenyl)-1-[3′-(methylsulfonyl)-biphenyl-3-yl]-3-[di-(trifluoromethyl)-hydroxy-methyl]-4,5-dihydro-1H-pyrazole] yielded an Emax of 30 fold and a concentration giving a half-maximal response (EC50) of 0.354 µM.
The like results for `COc1ccc(-c2ccc(C3CC(C(O)(C(F)(F)F)C(F)(F)F)=NN3c3ccccc3Cl)cc2)cn1` (stereo not drawn) [Example 260, 1-(2-chloro-phenyl)-5-[4-(6-methoxy-pyridin-3-yl)-phenyl]-3-[di-(trifluoromethyl)-hydroxy-methyl]-4,5-dihydro-1H-pyrazole] were, in that order, 47 fold and 1.87 µM.
The like results for `Cc1ccc(-c2ccc(C3CC(C(O)(C(F)(F)F)C(F)(F)F)=NN3c3ccccc3Cl)cc2)c(F)c1` (stereo not drawn) [Example 265, 1-(2-chloro-phenyl)-5-(2′-fluoro-4′-methyl-biphenyl-4-yl)-3-[di-(trifluoromethyl)-hydroxy-methyl]-4,5-dihydro-1H-pyrazole] were, in that order, 97 fold and 0.239 µM.
The like results for `CS(=O)(=O)c1ccc(-c2cccc(C3CC(C(F)(F)C(F)(F)F)=NN3c3ccc(F)cc3F)c2)cc1C(F)(F)F` (stereo not drawn) [Example 69, 1-(2,4-difluoro-phenyl)-5-(4′-methanesulfonyl-3′-trifluoromethyl-biphenyl-3-yl)-3-pentafluoroethyl-4,5-dihydro-1H-pyrazole] were, in that order, 83 fold and 1.1 µM.
`CSc1ccc(-c2cccc(C3CC(C(F)(F)C(F)(F)F)=NN3c3ccc(F)cc3F)c2)cn1` (stereo not drawn) [Example 77, 1-(2,4-difluoro-phenyl)-5-[3-(2-methylsulfanyl-pyridin-5-yl)-phenyl]-3-pentafluoroethyl-4,5-dihydro-1H-pyrazole]: the Emax is 57 fold and a half-maximal effect (EC50) was put at 7.18 µM.
`COc1cccc(OC)c1-c1ccc(C2CC(C(O)(C(F)(F)F)C(F)(F)F)=NN2c2ccccc2Cl)cc1` (stereo not drawn) [Example 245, 1-(2-chloro-phenyl)-5-(2′,6′-dimethoxy-biphenyl-4-yl)-3-[di-(trifluoromethyl)-hydroxy-methyl]-4,5-dihydro-1H-pyrazole] came in with an Emax of 57 fold and a concentration giving a half-maximal response (EC50) of 2.43 µM.
The like results for `CS(=O)(=O)c1ccc(-c2ccc(C3CC(C(O)(C(F)(F)F)C(F)(F)F)=NN3c3ccccc3Cl)cc2)cc1` (stereo not drawn) [Example 244, 1-(2-chloro-phenyl)-5-[4′-(methanesulfonyl)-biphenyl-4-yl]-3-[di-(trifluoromethyl)-hydroxy-methyl]-4,5-dihydro-1H-pyrazole] were, in that order, 100 fold and 0.298 µM.
In turn, `CS(=O)(=O)N1CCN(c2cccc(C3CC(C(F)(F)C(F)(F)F)=NN3c3ccc(F)cc3F)c2)CC1` (stereo not drawn) [Example 96, 1-(2,4-difluoro-phenyl)-5-[3-(4-methanesulfonyl-piperazin-1-yl)-phenyl]-3-pentafluoroethyl-4,5-dihydro-1H-pyrazole] displayed an Emax of 67 fold and an EC50 of 3.36 µM.
The like results for `CS(=O)(=O)c1ccc(-c2ccc(C3CC(C(O)(C(F)(F)F)C(F)(F)F)=NN3c3ccc(F)cc3F)cc2)nc1` (stereo not drawn) [Example 391, 1-(2,4-difluoro-phenyl)-5-[4-(5-methanesulfonyl-pyridin-2-yl)-phenyl]-3-[di-(trifluoromethyl)-hydroxy-methyl]-4,5-dihydro-1H-pyrazole] were, in that order, 26 fold and 0.173 µM.
In turn, `CS(=O)(=O)c1cncc(-c2cccc(N3N=C(C(F)(F)C(F)(F)F)CC3c3ccc(F)cc3F)c2)c1` (stereo not drawn) [Example 207, 5-(2,4-difluoro-phenyl)-1-[3-(5-methanesulfonyl-pyridin-3-yl)-phenyl]-3-pentafluoroethyl-4,5-dihydro-1H-pyrazole] showed an Emax of 16 fold and a concentration giving a half-maximal response (EC50) of 6.14 µM.
The like results for `CCOc1cccc(-c2ccc(C3CC(C(O)(C(F)(F)F)C(F)(F)F)=NN3c3ccc(F)cc3F)cc2)c1` (stereo not drawn) [Example 337, 5-(3′-ethoxy-biphenyl-4-yl)-1-(2,4-difluoro-phenyl)-3-[di-(trifluoromethyl)-hydroxy-methyl]-4,5-dihydro-1H-pyrazole] were, in that order, 80 fold and 1.07 µM.
For `Cc1ccc(-c2ccc(C3CC(C(O)(C(F)(F)F)C(F)(F)F)=NN3c3ccccc3Cl)cc2)cc1` (stereo not drawn) [Example 250, 1-(2-chloro-phenyl)-5-(4′-methyl-biphenyl-4-yl)-3-[di-(trifluoromethyl)-hydroxy-methyl]-4,5-dihydro-1H-pyrazole], the Emax was 107 fold and the EC50 amounted to 0.625 µM.
